Measured values from patent US20250110152A1, “METHOD FOR CHARACTERIZING INTERACTION FORCE BETWEEN LIGNIN AND CELLULASE” (NANJING FORESTRY UNIVERSITY, priority 2022, published 2025).

Tested on: cellulase
Experiment: AFM test of lignin-cellulase interaction force and dissociation rate in liquid phase environment (cellulase-modified AFM probe, lignin film)
Conditions: for interaction force between lignin / lignin model substance and cellulase: AFM force-displacement curves, liquid phase; for Feq: system lignin (model substance)-cellulase

interaction force between lignin / lignin model substance and cellulase	most likely dissociation force (loading rate 3 pN/s)	Feq	most likely dissociation force (loading rate 10 pN/s)	most likely dissociation force (loading rate 15 pN/s)	most likely dissociation force (loading rate 5 pN/s)	most likely dissociation force (loading rate 20 pN/s)	Structure (SMILES)	other results
0.58 nN	0.39 nN	0.58 nN	0.88 nN				COc1ccccc1O [GA]	most likely dissociation force (loading rate 4 pN/s): 0.41 nN; most likely dissociation force (loading rate 6.61 pN/s): 0.58 nN; most likely dissociation force (loading rate 9 pN/s): 0.63 nN
11.69 nN		11.69 nN	7.65 nN	8.80 nN			COc1ccccc1OC(CO)C(O)c1cc(OC)c(O)c(OC)c1 (stereo not shown) [SG]	most likely dissociation force (loading rate 13 pN/s): 8.25 nN; most likely dissociation force (loading rate 18.64 pN/s): 11.69 nN; most likely dissociation force (loading rate 23 pN/s): 13.40 nN
2.59 nN		2.59 nN	1.92 nN	2.27 nN	1.65 nN	2.46 nN	COc1cc(C(O)C(CO)Oc2ccccc2OC)ccc1O (stereo not shown) [GG]	most likely dissociation force (loading rate 24.24 pN/s): 2.59 nN
4.31 nN	3.99 nN	4.31 nN	4.58 nN				COc1cc(/C=C/CO)cc(OC)c1O [S—OH]	most likely dissociation force (loading rate 1 pN/s): 2.66 nN; most likely dissociation force (loading rate 5.79 pN/s): 4.31 nN; most likely dissociation force (loading rate 18 pN/s): 6.58 nN
4.76 nN	3.02 nN	4.76 nN			4.05 nN	8.54 nN	COc1cccc(OC)c1O [S]	most likely dissociation force (loading rate 7.89 pN/s): 4.76 nN; most likely dissociation force (loading rate 12 pN/s): 5.21 nN
12.52 nN		12.52 nN	10.04 nN	11.29 nN	5.00 nN	12.52 nN	O=C(O)/C=C/c1ccc(O)cc1 [H]	most likely dissociation force (loading rate 7 pN/s): 5.49 nN

Structure (SMILES)	interaction force between lignin / lignin model substance and cellulase	most likely dissociation force (loading rate 3 pN/s)	Feq	most likely dissociation force (loading rate 10 pN/s)	most likely dissociation force (loading rate 15 pN/s)	most likely dissociation force (loading rate 5 pN/s)	most likely dissociation force (loading rate 20 pN/s)	other results
CCCc1ccc(O)c(OC)c1 [G]	0.97 nN	0.87 nN	0.97 nN					most likely dissociation force (loading rate 1 pN/s): 0.39 nN; most likely dissociation force (loading rate 5.74 pN/s): 0.97 nN; most likely dissociation force (loading rate 7 pN/s): 1.06 nN; most likely dissociation force (loading rate 12 pN/s): 1.25 nN
